“Also recorded” adds a separate entry of the source. Like-named read-outs stand apart in the source and are kept apart here.
Columns and labels:
[1] = tested on: primary cystic fibrosis airway epithelial cells; assay: MCC formation in cystic fibrosis airway epithelial cultures; type: cell-based, human; conditions: for multiciliated cell formation in mature CF cultures: mature (ALI+30d) CF cultures treated one week (ALI+30 to +37d); for MCC differentiation with semagacestat in combination with Lumacaftor (and Ivacaftor): semagacestat ALI+0-21d, Lumacaftor ALI+19-21d, Ivacaftor ten minutes, wild-type and CF cultures; for MCC/total cell ratio in CF patient-derived cultures: treated during differentiation only (ALI+0 to +21d), homemade medium
Procedure: To assess the effects of combining semagacestat and CFTR modulator treatment, wild-type control and CF (F508AIF5080) HNEC cultures were grown to maturity with or without semagacestat from ALI+0-21d and cultures were treated with or without Lumacaftor (VX-809) from ALI+19-21d and Ivacaftor (VX-770) for ten minutes prior to fixation. PFA fixed membranes were then stained for Acetylated tubulin (green; MCCs) and E-Cadherin (red).
Primary healthy and cystic fibrosis airway epithelial cells were treated with semagacestat (LY45139) during differentiation only (ALI+0 to +21 d) and labeled at ALI+21d with anti-acetylated α-Tubulin (green) and ECAD (red) antibodies. […] Restoration of a healthy MCC/total cell ratio is expected to improve mucociliary clearance.
Mature (ALI+30d) primary cystic fibrosis human airway epithelial cells were treated with DAPT for one week (ALI+30 to +37d), then labeled with anti-acetylated α-Tubulin (green) and ECAD (red) antibodies.
As observed in healthy HNECs, GSI-induced multiciliated cells in CF HNECs are structurally normal, and GSI treatment in both differentiating and mature CF cultures can mitigate multiciliated cell loss (FIG. 41, 43A-B).
Primary human nasal epithelial cell (HNEC) cultures. […] Primary air-liquid interface (ALI) culture of nasal epithelial cells from passage 0 (P0) or P1 basal stem cells was carried out as previously described (24,30). Briefly, cells are removed from cytobrushes with gentle enzymatic digestion. P0 HNEC cultures are initiated by seeding freshly isolated cells onto Collagen I coated Transwell filters. P1 HNEC cultures are initiated from basal cells that were first expanded on Collagen I coated plastic dishes in proliferation medium supplemented with Y-27632 (ROCK inhibitor, 10 μM), DMH-1 (BMP inhibitor, 1 μM), A-83-01, (TGF-β inhibitor, 1 μM), and CHIR99021 (WNT agonist, 1 μM)(42), all from Selleckchem. HNECs seeded onto Transwells are initially cultured submerged in proliferation medium until confluency, then lifted to ALI (considered as ALI+0d of culture) by supplying differentiation medium only from the bottom compartment. HNECs are considered mature at ALI+21d of culture. Healthy and CF HNECs used in the study were cultured in homemade media (24). CF HNECs used for the Ussing chamber measurements only were cultured in Pneumacult Ex+(proliferation) and Pneumacult ALI (differentiation) media (Stemcell). […] Healthy HNECs were treated with 10 ng/ml recombinant human IL-13 (RnD Systems).

[2] = tested on: primary human nasal epithelial cells (HNECs); conditions: known / previously demonstrated (refs 23, 24), healthy, CF and CRS cultures, cited from earlier work
[3] = tested on: primary cystic fibrosis airway epithelial cells; conditions: treatment during differentiation, homemade medium; previously shown (ref 24); cited from earlier work
airway epithelia in mice = assay: MCC number in airway epithelium of Foxj1-GFP mice after intraperitoneal GSI; type: in vivo, mouse
Procedure: 10-40 week age-matched male and female Foxj1-GFP mice were given semagacestat or vehicle by intraperitoneal (IP) administration. In the first experiment, semagacestat was administered at 0.1 mg/kg and 1 mg/kg twice daily for three days and compared to vehicle alone. Mice were sacrificed on day 7. […] In approximately similar sized, PFA-fixed airways, nuclei (red; DAPI) were scored either as MCCs (green; GFP) or non-ciliated cells (absence of GFP). Acetylated tubulin (blue) marks cilia. Samples were blinded for treatment group prior to scoring.
In the second experiment, vehicle and semagacestat were administered once daily for 5 consecutive days per week for three weeks, with a semagacestat dose of 1 mg/kg. An important observed toxicity in multiple GSI clinical trials, including large Alzheimer's Disease trials, was gastrointestinal toxicity. As a surrogate measure of GI toxicity, we monitored body weight throughout the experiment. Body weight was measured on Days 1, 9, 24 and 30, and mice were sacrificed on day 31.
The impact of LY450139 in mouse models of neurodegeneration has been studied extensively (27,28). In these models, LY450139 were administered systemically for weeks to months at a time at up to 100 mg/kg. It was sought to determine if a substantially lower dose administered for a shorter duration would be sufficient to induce an increase in the proportion of multiciliated cells in the intact airway epithelium of healthy adult mice. Mice were first treated with 1 or 0.1 mg/kg of LY450139, 10 mg/kg DAPT or vehicle control twice daily for three consecutive days via intraperitoneal injection and then assessed on day 7 (FIG. 42A). To quantitate multiciliated cells, treatments were carried out in Foxj1/EGFP transgenic mice that expresses cytoplasmic GFP under the multiciliated cell specific Foxj1 promoter (32). Multiciliated cell number was quantitated in airways of similar size in lung tissue sections. Cells were identified by DAPI nuclear staining and were counted as multiciliated if the DAPI staining overlapped with GFP signal (FIG. 42B).
Mouse husbandry and GSI treatment in mice. Foxj1/EGFP mice have been previously described (32,44). 10-40 week age-matched male and female Foxj1/EGFP mice were treated with LY450139 or vehicle control by intraperitoneal (IF) administration. In the first experiment, 0.1 mg/kg, or 1 mg/kg LY450139, 10 mg/kg DAPT or saline vehicle was administered twice daily for three consecutive days, then the mice were sacrificed on day 7. In the second experiment, 1 mg/kg LY450139 or saline vehicle was administered once daily for five consecutive days per week for three weeks, then the mice were sacrificed on day 30. Body weight was monitored as a surrogate measure of GI toxicity. For both studies, the lungs were cryoembedded en bloc in OCT compound (Thermo Fisher). Cryosections were formalin fixed, then labeled with anti-GFP and acetylated α-Tubulin antibodies and stained with DAPI to mark nuclei. Images were acquired using a Leica SP8 confocal microscope and analyzed by three independent blinded investigators. In airways of approximately uniform size viewed in cross section, cells were first identified by DAPI signal, and then scored either as multiciliated cells (GFP positive) or nonciliated cells (GFP negative). Ac. α-Tubulin signal was used as an additional identifying feature for multiciliated cells. All procedures involving animals were approved by the Institutional Animal Care and Use Committee of Stanford University School of Medicine in accordance with established guidelines for animal care.

[4] = cited from earlier work
[5] = cited from earlier work; remark: listed apart in the source

C[C@H](NC(=O)Cc1cc(F)cc(F)c1)C(=O)NC(C(=O)OC(C)(C)C)c1ccccc1 (some centres unmarked) [DAPT]
multiciliated cell formation in mature CF cultures [1]: induces the formation of additional multiciliated cells in mature cystic fibrosis cultures; also recorded: induces the formation of additional multiciliated cells in mature CF cultures
multiciliated cell formation in mature CF cultures ([1]; listed as DAFT): induces the formation of additional multiciliated cells in mature cystic fibrosis cultures
multiciliated cell numbers in primary airway epithelial cell cultures [2]: increase the proportion of multiciliated cells
multiciliated cell numbers in primary airway epithelial cell cultures ([2]; listed as DAFT): increases multiciliated cell numbers
multiciliated cell proportion in CF cultures [3]: increases the multiciliated cell proportion in CF cultures to that of healthy HNECs
number of multiciliated cells in airways (airway epithelia in mice; 10 mg/kg DAPT IP twice daily for three days, assessed day 7): modest, but statistically significant increase in the number of multiciliated cells

O=C(O)CC[C@H]1CC[C@@](c2cc(F)ccc2F)(S(=O)(=O)c2ccc(Cl)cc2)CC1 [MK-0752]
most common drug-related toxicities ([4]; 103 patients, 450 to 4,200 mg on daily, intermittent or weekly schedules): diarrhea, nausea, vomiting, and fatigue
tolerability of weekly dosing ([4]; human, in vivo): generally well-tolerated

CC(C)[C@H](O)C(=O)N[C@@H](C)C(=O)N[C@@H]1C(=O)N(C)CCc2ccccc21 [semagacestat, (2S)-2-hydroxy-3-methyl-N-[(1 S)-1-methyl-2-oxo-2-[[(1 S)-2,3,4,5-tetrahydro-3-methyl-2-oxo-1H-3-benzazepin-1-yl]amino]ethyl]-butamide]
MCC differentiation with semagacestat in combination with Lumacaftor (and Ivacaftor) [1]: as well as or better than cultures treated with semagacestat alone; also recorded: no significant decrease in semagacestat-induced MCC response was seen
MCC differentiation with semagacestat in combination with Lumacaftor (and Ivacaftor) ([1]; listed as Semagacestat): effective at increasing the percentage of MCCs in the presence of Lumacaftor
MCC response of CF patients not eligible for Trikafta ([1]; semagacestat alone, not shown): respond to semagacestat alone similarly to those on corrector therapy
MCC/total cell ratio in CF patient-derived cultures ([1]; listed as LY45139): effective in increasing MCC/total cell ratio
MCC/total cell ratio in CF patient-derived cultures ([1]; listed as LY450139): similarly normalized proportion of multiciliated cells; also recorded: restores multiciliated cell numbers in CF cultures; also recorded: increases multiciliated cell number in CF cultures
ratio of ciliated to non-ciliated cells / multiciliated cell number in airways (airway epithelia in mice; 0.1 mg/kg IP twice daily for three days, assessed day 7): increase in the ratio of ciliated to non-ciliated cells
ratio of ciliated to non-ciliated cells / multiciliated cell number in airways (airway epithelia in mice; 0.1 mg/kg IP twice daily for three days, assessed day 7, listed as LY450139): trend towards more multiciliated cells that did not reach statistical significance
ratio of ciliated to non-ciliated cells / multiciliated cell number in airways (airway epithelia in mice; 1 mg/kg IP once daily, 5 consecutive days per week for three weeks, assessed day 30/31): significant increase in the ratio of ciliated to non-ciliated cells
ratio of ciliated to non-ciliated cells / multiciliated cell number in airways (airway epithelia in mice; 1 mg/kg IP once daily, 5 consecutive days per week for three weeks, assessed day 30/31, listed as LY450139): induced an increase in the proportion of multiciliated cells; also recorded: efficacious; also recorded: increased multiciliated cell number
ratio of ciliated to non-ciliated cells / multiciliated cell number in airways (airway epithelia in mice; 1 mg/kg IP twice daily for three days, assessed day 7): increase in the ratio of ciliated to non-ciliated cells
ratio of ciliated to non-ciliated cells / multiciliated cell number in airways (airway epithelia in mice; 1 mg/kg IP twice daily for three days, assessed day 7, listed as LY450139): modest, but statistically significant increase in the number of multiciliated cells; also recorded: sufficient to increase multiciliated cell numbers; also recorded: increased multiciliated cell number
adverse events ([5]; Phase I, 5 mg, 20 mg or 40 mg daily for 14 days): adverse events similar to placebo
subjects reporting adverse events that may have been drug related ([5]; Phase I, 50 mg daily dose): 2 of 7
cognitive status ([5]; Phase III trial in Alzheimer's Disease, 100 mg and 140 mg daily): did not improve cognitive status
cognitive ability ([5]; Phase III trial in Alzheimer's Disease, patients on the highest dose): significant worsening of cognitive ability
adverse events ([5]; Phase III trial in Alzheimer's Disease): more adverse events, including skin cancers and infections
tolerability of lower doses ([5]; human trials, 50 mg for 2 weeks or 40 mg for 6 weeks daily): well-tolerated
tolerability of higher doses ([5]; human trials, 100 mg and 140 mg daily for 14 weeks): not well tolerated chiefly due to GI related adverse events
